# Test results reported in patent US20230172930A1, “USE OF COMPLEMENT FACTOR D INHIBITORS ALONE OR IN COMBINATION WITH ANTI-C5 ANTIBODIES FOR TREATMENT OF PAROXYSMAL NOCTURNAL HEMOGLOBINURIA” (Alexion Pharmaceuticals, Inc., priority 2020, published 2023).
# Test system: PNH patients with an inadequate response to eculizumab
# Test: Phase 2 study: FACIT-Fatigue Scale V4 (score range 0-52, higher = improvement)
# Assay type: in vivo, human
# Conditions: for FACIT-Fatigue, mean: N=11
# Description: This study utilized the validated quality of life instrument FACIT-Fatigue Scale (Version 4). This self-reporting instrument measures the severity of fatigue being experienced on a scale of 0 to 52 where a score of less than 30 represents severe fatigue and higher scores indicate improvement in fatigue. A 3-point change is clinically meaningful on this scale. A 10-point or greater change is highly significant on this scale. […] This constitutes an upper limit of the disclosure.
compound,measurement,setting,value
"CC(=O)c1nn(CC(=O)N2C[C@H](F)C[C@H]2C(=O)Nc2cccc(Br)n2)c2ccc(-c3cnc(C)nc3)cc12 [Danicopan, danicopan]","FACIT-Fatigue, mean","Baseline, before danicopan, on eculizumab",34
same,"FACIT-Fatigue, mean","Week 24, danicopan 100-200 mg TID + eculizumab",45
same,FACIT-Fatigue,"Patient A, Baseline, before danicopan, on eculizumab 900 mg q14d",33
same,FACIT-Fatigue,"Patient A, Week 12, danicopan 150 mg TID + eculizumab 900 mg q14d",48
same,FACIT-Fatigue,"Patient A, Week 24, danicopan 150 mg TID + eculizumab 900 mg q14d",52
same,FACIT-Fatigue,"Patient B, Baseline, before danicopan, on eculizumab 1200 mg q14d",45
same,FACIT-Fatigue,"Patient B, Week 12, danicopan 100 mg TID + eculizumab 900 mg q14d",49
same,FACIT-Fatigue,"Patient B, Week 24, danicopan 100 mg TID + eculizumab 900 mg q14d",48
same,FACIT-Fatigue,"Patient C, Baseline, before danicopan, on eculizumab 900 mg q14d",17
same,FACIT-Fatigue,"Patient C, Week 12, danicopan 150 mg TID + eculizumab 900 mg q14d",36
same,FACIT-Fatigue,"Patient C, Week 24, danicopan 150 mg TID + eculizumab 900 mg q14d",26
same,FACIT-Fatigue,"Patient D, Baseline, before danicopan, on eculizumab 900 mg q14d",18
same,FACIT-Fatigue,"Patient D, Week 12, danicopan 150 mg TID + eculizumab 900 mg q14d",41
same,FACIT-Fatigue,"Patient D, Week 24, danicopan 150 mg TID + eculizumab 900 mg q14d",41
same,FACIT-Fatigue,"Patient E, Baseline, before danicopan, on eculizumab 1200 mg q14d",42
same,FACIT-Fatigue,"Patient E, Week 12, danicopan 150 mg TID + eculizumab 1200 mg q14d",25
same,FACIT-Fatigue,"Patient E, Week 24, danicopan 150 mg TID + eculizumab 1200 mg q14d",38
same,FACIT-Fatigue score,"Patient F, Baseline",9 points
same,FACIT-Fatigue improvement,"Patient F, Baseline to Week 24",43 point
same,FACIT-Fatigue,"Patient F, Baseline, before danicopan, on eculizumab 900 mg q14d",9
same,FACIT-Fatigue,"Patient F, Week 12, danicopan 150 mg TID + eculizumab 900 mg q14d",48
same,FACIT-Fatigue score,"Patient F, Week 24",52 points
same,FACIT-Fatigue,"Patient F, Week 24, danicopan 150 mg TID + eculizumab 900 mg q14d",52
same,FACIT-Fatigue,"Patient G, Baseline, before danicopan, on eculizumab 1500 mg q14d",28
same,FACIT-Fatigue,"Patient G, Week 12, danicopan 100 mg TID + eculizumab 1500 mg q14d",44
same,FACIT-Fatigue,"Patient G, Week 24, danicopan 100 mg TID + eculizumab 1500 mg q14d",38
same,FACIT-Fatigue,"Patient H, Baseline, before danicopan, on eculizumab 900 mg q14d",47
same,FACIT-Fatigue,"Patient H, Week 12, danicopan 200 mg TID + eculizumab 900 mg q14d",49
same,FACIT-Fatigue,"Patient H, Week 24, danicopan 200 mg TID + eculizumab 900 mg q14d",49
same,FACIT-Fatigue,"Patient I, Baseline, before danicopan, on eculizumab 900 mg q14d",48
same,FACIT-Fatigue,"Patient I, Week 12, danicopan 100 mg TID + eculizumab 900 mg q14d",50
same,FACIT-Fatigue,"Patient I, Week 24, danicopan 200 mg TID + eculizumab 900 mg q14d",49
same,FACIT-Fatigue,"Patient J, Baseline, before danicopan, on eculizumab 1200 mg q14d",49
same,FACIT-Fatigue,"Patient J, Week 12, danicopan 100 mg TID + eculizumab 1200 mg q14d",51
same,FACIT-Fatigue,"Patient J, Week 24, danicopan 200 mg TID + eculizumab 1200 mg q14d",51
same,FACIT-Fatigue,"Patient K, Baseline, before danicopan, on eculizumab 900 mg q14d",33
same,FACIT-Fatigue,"Patient K, Week 12, danicopan 100 mg TID + eculizumab 900 mg q14d",46
same,FACIT-Fatigue,"Patient K, Week 24, danicopan 150 mg TID + eculizumab 900 mg q14d",50
same,mean increase in FACIT-Fatigue score,at 24 Weeks relative to Baseline on eculizumab,11 points
